Reference: patent US20240116985A1, “STAPLED PEPTIDES AND METHODS THEREOF” (priority 2020, published 2024)
In brackets after ≈: the same amount, converted by molar mass. Where two headings read alike, the source gives them in different places.

Columns and labels:
[1] = biological target: T1, full-length beta-Catenin (Uniprot ID P35222) (Homo sapiens, UniProt P35222); experiment: Fluorescence polarization IC50 (beta-catenin / 5FAM-TCF4 10-53 competition); assay type: binding
T1 construct: 10 nM full-length beta-Catenin (Uniprot ID P35222)
T1 sequence (P35222 1-781): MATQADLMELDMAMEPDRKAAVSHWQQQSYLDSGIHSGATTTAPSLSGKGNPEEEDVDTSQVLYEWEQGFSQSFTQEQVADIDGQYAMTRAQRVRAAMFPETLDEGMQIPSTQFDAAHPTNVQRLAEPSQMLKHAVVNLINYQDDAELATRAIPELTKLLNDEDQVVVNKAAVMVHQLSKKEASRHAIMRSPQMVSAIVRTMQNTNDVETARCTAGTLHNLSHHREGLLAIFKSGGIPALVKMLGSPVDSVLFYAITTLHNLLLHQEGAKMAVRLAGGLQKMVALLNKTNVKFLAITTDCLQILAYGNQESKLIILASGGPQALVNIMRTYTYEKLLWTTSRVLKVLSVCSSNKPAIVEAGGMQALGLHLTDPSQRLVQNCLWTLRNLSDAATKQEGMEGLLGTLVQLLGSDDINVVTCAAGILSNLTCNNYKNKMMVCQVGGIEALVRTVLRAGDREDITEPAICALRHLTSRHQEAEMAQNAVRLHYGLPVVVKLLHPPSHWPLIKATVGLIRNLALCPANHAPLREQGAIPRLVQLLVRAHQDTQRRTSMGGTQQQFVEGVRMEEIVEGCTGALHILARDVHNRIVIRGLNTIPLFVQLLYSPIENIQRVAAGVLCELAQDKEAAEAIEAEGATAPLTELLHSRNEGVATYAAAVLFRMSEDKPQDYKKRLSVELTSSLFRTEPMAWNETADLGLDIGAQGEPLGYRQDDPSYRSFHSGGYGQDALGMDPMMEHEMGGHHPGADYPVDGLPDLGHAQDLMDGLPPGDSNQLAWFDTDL

CHI Log D procedure = assay type: physicochemical; details: for chromatographic logD: pH 7.4, CHI Log D; for CHI Log D: pH 7.4
Solubility in PBS = assay type: physicochemical
In short: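 PBS sample ultracentrifuged; supernatant run on HPLC vs. 50 μM peptide in DMSO standard. Solubility = (PBS peak area / DMSO peak area) × 50 uM.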

[2] = Table E2-1, read-out: beta-Catenin FP IC50
[3] = fluorescence polarization, beta-catenin, read-out: FP EC50

IC50 [1, 2] [nM] | chromatographic logD (CHI Log D procedure) | Solubility (Solubility in PBS; Solubility (uM)) [µM] | IC50 [1, 3] [nM] | CHI Log D (CHI Log D procedure) | Solubility (Solubility in PBS) [µM] | Compound
1320 |  |  | 1320 | 2.296 | 48 (≈ 88.2 µg/mL) | CC(=O)N1CCC[C@]12CC=CCCCC1(CCCC=CCCCCCC[C@@](C)(C(=O)N[C@@H](Cc3ccccc3)C(=O)N[C@@H](Cc3csc4ccccc34)C(=O)N[C@@H](CCC(N)=O)C(N)=O)NC(=O)[C@H](C)NC(=O)[C@H](Cc3cccc(C(F)(F)F)c3)NC(=O)[C@H](C)NC(=O)[C@H](C)NC(=O)[C@H](CC(=O)O)NC(=O)[C@H](CC(=O)O)NC1=O)NC(=O)[C@H](C)NC(=O)[C@H](CC(=O)O)NC2=O (stereo partly drawn) [I-376, Ac-PL3-Asp-Ala-B5-Asp-Asp-Ala-Ala-3F3MeF-Ala-S8-Phe-BztA-Gln-NH2]
 |  |  | 1320 | 2.296 | 48 (≈ 88.2 µg/mL) | CC(=O)N1CCC[C@]12CC=CCCCC1(CCCC=CCCCCCC[C@@](C)(C(=O)N[C@@H](Cc3ccccc3)C(=O)N[C@@H](Cc3csc4ccccc34)C(=O)N[C@@H](CCC(N)=O)C(N)=O)NC(=O)[C@H](C)NC(=O)[C@H](Cc3cccc(C(F)(F)F)c3)NC(=O)[C@H](C)NC(=O)[C@H](C)NC(=O)[C@H](CC(=O)O)NC(=O)[C@H](CC(=O)O)NC1=O)NC(=O)[C@H](C)NC(=O)[C@H](CC(=O)O)NC2=O (stereo partly drawn) [I-377, Ac-PL3-Asp-Ala-B5-Asp-Asp-Ala-Ala-3F3MeF-Ala-S8-Phe-BztA-Gln-NH2]

Further lines, the compound ahead of its results:

Compound | IC50 [1, 2] [nM] | chromatographic logD (CHI Log D procedure) | Solubility (Solubility in PBS; Solubility (uM)) [µM] | IC50 [1, 3] [nM] | CHI Log D (CHI Log D procedure) | Solubility (Solubility in PBS) [µM]
CC(=O)N1CCC[C@]12CC=CCCCC1(CCCC=CCCCCCC[C@@](C)(C(=O)N[C@@H](Cc3cccc(F)c3)C(=O)N[C@@H](Cc3csc4ccccc34)C(=O)N[C@@H](CCC(N)=O)C(N)=O)NC(=O)[C@H](C)NC(=O)[C@H](Cc3ccccc3)NC(=O)[C@H](C)NC(=O)[C@H](C)NC(=O)[C@H](CCC(=O)O)NC(=O)[C@H](CC(=O)O)NC1=O)NC(=O)[C@H](C)NC(=O)[C@H](CC(=O)O)NC2=O (stereo partly drawn) [I-372, Ac-PL3-Asp-Ala-B5-Asp-Glu-Ala-Ala-Phe-Ala-S8-3FF-BztA-Gln-NH2] | 2090 | 2.17 | 44 (≈ 79.3 µg/mL) |  |  | 
CC(=O)N1CCC[C@]12CC=CCCCC1(CCCC=CCCCCCC[C@@](C)(C(=O)N[C@@H](Cc3ccccc3)C(=O)N[C@@H](Cc3csc4ccccc34)C(=O)N[C@@H](CCC(N)=O)C(N)=O)NC(=O)[C@H](C(C)C)NC(=O)[C@H](Cc3cccc(C(F)(F)F)c3)NC(=O)[C@H](C)NC(=O)[C@H](C)NC(=O)[C@H](CC(=O)O)NC(=O)[C@H](CC(=O)O)NC1=O)NC(=O)[C@H](C)NC(=O)[C@H](CC(=O)O)NC2=O (stereo partly drawn) [I-373, Ac-PL3-Asp-Ala-B5-Asp-Asp-Ala-Ala-3F3MeF-Val-S8-Phe-BztA-Gln-NH2] | 945 | 2.3 | 26 (≈ 48.5 µg/mL) |  |  | 
CC(=O)N1CCC[C@]12CC=CCCCC1(CCCC=CCCCCCC[C@@](C)(C(=O)N[C@@H](Cc3ccccc3)C(=O)N[C@@H](Cc3csc4ccccc34)C(=O)N[C@@H](CCC(N)=O)C(N)=O)NC(=O)[C@H](C)NC(=O)[C@H](Cc3cccc(C(F)(F)F)c3)NC(=O)[C@H](C)NC(=O)[C@H](C)NC(=O)[C@H](CC(=O)O)NC(=O)[C@H](CC(=O)O)NC1=O)NC(=O)[C@H](C)NC(=O)[C@H](CC(=O)O)NC2=O (stereo partly drawn) [I-374, Ac-PL3-Asp-Ala-B5-Asp-Asp-Ala-Ala-3F3MeF-Ala-S8-Phe-BztA-Gln-NH2] | 3010 |  |  | 3010 | 2.242 | 49 (≈ 90.1 µg/mL)
CC(=O)N1CCC[C@]12CC=CCCCC1(CCCC=CCCCCCC[C@@](C)(C(=O)N[C@@H](Cc3ccccc3)C(=O)N[C@@H](Cc3csc4ccccc34)C(=O)N[C@@H](CCC(N)=O)C(N)=O)NC(=O)[C@H](C)NC(=O)[C@H](Cc3cccc(C(F)(F)F)c3)NC(=O)[C@H](C)NC(=O)[C@H](C)NC(=O)[C@H](CC(=O)O)NC(=O)[C@H](CC(=O)O)NC1=O)NC(=O)[C@H](C)NC(=O)[C@H](CC(=O)O)NC2=O (stereo partly drawn) [I-375, Ac-PL3-Asp-Ala-B5-Asp-Asp-Ala-Ala-3F3MeF-Ala-S8-Phe-BztA-Gln-NH2] |  |  |  | 3010 | 2.242 | 49 (≈ 90.1 µg/mL)
